Source: patent publication US10294214B2, “Positive allosteric modulators of human melanocortin-4 receptor” (Vanderbilt University, priority 2016, dated 2019)

Biological target: hMC4R (Homo sapiens (Human), UniProt P32245)
Experiment: LANCE cAMP assay, hMC4R PAM
Type: cell-based
Conditions: HEK293 cells stably expressing the hMC4R; α-MSH at an EC20 dose
Protocol: Analysis of pharmacological properties of compounds was performed using the LANCE cAMP kit (Perkin Elmer). HEK293 cells stably expressing the hMC4R were treated with PAM compounds at doses indicated, then incubated with an Alexa Fluor 647-labeled antibody in stimulation buffer according to manufacturer's instructions for 30 min at RT. Next, α-MSH was added (at an EC20 dose or at doses indicated for concentration-response curves), and plates were incubated for 15 minutes at RT, followed by the addition of 10 μL of detection mix. Plates were then incubated for 30 minutes at RT and read on a Viewlux (Perkin Elmer) using 618 and 671 nm emission filters. IBMX was not included in the assay.

Sequence of hMC4R (P32245 whole entry): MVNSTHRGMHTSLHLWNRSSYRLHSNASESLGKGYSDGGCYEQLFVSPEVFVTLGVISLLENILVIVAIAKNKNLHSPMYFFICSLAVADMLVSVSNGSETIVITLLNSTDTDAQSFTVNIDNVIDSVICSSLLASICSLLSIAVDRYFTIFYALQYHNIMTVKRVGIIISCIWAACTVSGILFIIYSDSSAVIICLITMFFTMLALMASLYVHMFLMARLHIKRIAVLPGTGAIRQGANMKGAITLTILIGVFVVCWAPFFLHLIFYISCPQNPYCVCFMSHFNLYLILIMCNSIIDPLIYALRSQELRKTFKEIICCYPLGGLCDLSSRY

hMC4R PAM LANCE pEC50 Mean	hMC4R PAM LANCE Asym Max	Structure (SMILES)
6.5		COC(=O)c1[nH]c2ccc(Cl)cc2c1NC(=O)CN1CCC(c2ccccc2)CC1 [Example 4]
6.5		COC(=O)c1[nH]c2ccc(Br)cc2c1NC(=O)CN1CCN(c2cccc(C)c2C)CC1 [Example 5]
6.4		COC(=O)c1[nH]c2cc(Br)ccc2c1NC(=O)CN1CCN(c2ccc(F)cc2)CC1 [Example 6]
6.4		CC1(C)CCCN(CC(=O)Nc2c(C(=O)C3CC3)[nH]c3ccc(Br)cc23)C1 [Example 7]
6.5		O=C(CN1CCC(c2ccccc2)CC1)Nc1c(C(=O)C2CC2)[nH]c2ccc(Br)cc12 [Example 8]
6.4		Cc1cccc(N2CCN(CC(=O)Nc3c(C(=O)C4CC4)[nH]c4ccc(Br)cc34)CC2)c1C [Example 9]
6.5		Cc1cccc(N2CCN(CC(=O)Nc3c(C(=O)C4CC4)[nH]c4ccccc34)CC2)c1C [Example 10]
6.5		COC(=O)c1[nH]c2ccccc2c1NC(=O)CN1CCC(c2ccccc2)CC1 [Example 11]
6.3		COC(=O)c1[nH]c2ccccc2c1NC(=O)CN1CCN(c2cccc(C(F)(F)F)c2)CC1 [Example 12]
6.3		COC(=O)c1[nH]c2ccc(Br)cc2c1NC(=O)CN1CCN(c2cccc(OC)c2)C(C)C1 (stereo not shown) [Example 13]
6.2		O=C(CN1CCN(Cc2ccccc2)CC1)Nc1c(C(=O)C2CC2)[nH]c2ccc(Br)cc12 [Example 14]
6.2		COC(=O)c1[nH]c2ccc(Cl)cc2c1NC(=O)CN1CCN(c2ccccc2)CC1 [Example 15]
6.2		O=C(CN1CCC(c2ccccc2)CC1)Nc1c(C(=O)C2CC2)[nH]c2ccccc12 [Example 16]
6.2		COC(=O)c1[nH]c2ccc(Br)cc2c1NC(=O)CN1CCN(c2ccccc2)CC1 [Example 17]
6.1		CC(=O)c1[nH]c2ccccc2c1NC(=O)CN1CCC(Cc2ccccc2)CC1 [Example 18]
6.2		CC(=O)c1[nH]c2ccccc2c1NC(=O)CN1CCC(c2ccccc2)CC1 [Example 19]
6.2		COC(=O)c1[nH]c2ccc(Br)cc2c1NC(=O)C(C)N1CCC(Cc2ccccc2)CC1 (stereo not shown) [Example 20]
6.2		COC(=O)c1[nH]c2ccc(Cl)cc2c1NC(=O)CN1CCC(Cc2ccccc2)CC1 [Example 21]
6.2		COC(=O)c1[nH]c2ccc(Br)cc2c1NC(=O)CN1CCC(Cc2ccccc2)CC1 [Example 22]
6.1		CC1(C)CCCN(CC(=O)Nc2c(C(=O)C3CC3)[nH]c3ccccc23)C1 [Example 23]
6		COC(=O)c1[nH]c2ccccc2c1NC(=O)CN1CCC(Cc2ccccc2)CC1 [Example 24]
6		COC(=O)c1[nH]c2ccccc2c1NC(=O)CN1CCC(Oc2ccccc2)CC1 [Example 25]
6		COC(=O)c1[nH]c2ccc(Br)cc2c1NC(=O)CN1CCCCC1 [Example 26]
5.9		COC(=O)c1[nH]c2ccc(C)cc2c1NC(=O)CN1CCN(c2cccc(C)c2C)CC1 [Example 27]

hMC4R PAM LANCE pEC50 Mean	hMC4R PAM LANCE Asym Max	Structure (SMILES)
5.8		CCOC(=O)c1[nH]c2ccncc2c1NC(=O)CN1CCCC(C)(C)C1 [Example 28]
5.9		COC(=O)c1[nH]c2ccccc2c1NC(=O)CN1CCCC2(CCC2)C1 [Example 29]
5.9		COC(=O)c1[nH]c2ccccc2c1NC(=O)C(C)N1CCC(Cc2ccccc2)CC1 (stereo not shown) [Example 30]
5.8		COC(=O)c1[nH]c2ccc(C)cc2c1NC(=O)CN1CCN(c2cccc(OC)c2)C(C)C1 (stereo not shown) [Example 31]
5.8		COC(=O)c1[nH]c2ccccc2c1NC(=O)CN1CCC(Oc2ccccn2)CC1 [Example 32]
5.6		CC(=O)c1[nH]c2ccccc2c1NC(=O)CN1CCN(Cc2ccccc2)CC1 [Example 33]
5.7		CCOC(=O)c1[nH]c2ncccc2c1NC(=O)CN1CCCC(C)(C)C1 [Example 34]
5.8		COC(=O)c1[nH]c2ccc(Br)cc2c1NC(=O)CN1CCN(Cc2ccccc2)CC1 [Example 35]
5.8		COC(=O)c1[nH]c2ccc(Br)cc2c1NC(=O)CN1CCSCC1 [Example 36]
6.6		O=C(CN1CCC(C2CCCCC2)CC1)Nc1c(C(=O)C2CC2)[nH]c2ccccc12 [Example 37]
6.6		O=C(CN1CCC(C2CCCCC2)CC1)Nc1c(C(=O)C2CC2)[nH]c2ccc(Cl)cc12 [Example 38]
6.6		COC(=O)c1[nH]c2ccc(Br)cc2c1NC(=O)CN1CCC(c2ccccc2)CC1 [Example 39]
6.5		CC(=O)c1[nH]c2ccccc2c1NC(=O)CN1CCC(C2CCCC2)CC1 [Example 40]
6.4		O=C(CN1CCC(C2CCCC2)CC1)Nc1c(C(=O)C2CC2)[nH]c2ccccc12 [Example 41]
6.5		CC(=O)c1[nH]c2ccccc2c1NC(=O)CN1CCC(C2CCCCC2)CC1 [Example 42]
6.4		CC(=O)c1[nH]c2ccc(Br)cc2c1NC(=O)CN1CCC(c2ccccc2)CC1 [Example 43]
6.4		CC(=O)c1[nH]c2ccc(Br)cc2c1NC(=O)CN1CCC(Cc2ccccc2)CC1 [Example 44]
6.3	48	COC(=O)c1[nH]c2ccc(Br)cc2c1NC(=O)CN1CCN(C2c3ccccc3-c3ccccc32)CC1 [Example 46]
6.2		COC(=O)c1[nH]c2ccc(Br)cc2c1NC(=O)CN1CCN(C(c2ccccc2)c2ccccc2)CC1 [Example 47]
6.3		CC1(C)CCCN(CC(=O)Nc2c(C(=O)C3CC3)[nH]c3ccc(S(C)(=O)=O)cc23)C1 [Example 48]
6.2		COC(=O)c1[nH]c2ccccc2c1NC(=O)CN1CCC(N2CCc3ccccc32)CC1 [Example 49]
6.1		CC(C)=C1CCN(CC(=O)Nc2c(C(=O)C3CC3)[nH]c3ccccc23)CC1 [Example 50]
6		CC(=O)c1[nH]c2ccc(Br)cc2c1NC(=O)CN1CCCC(C)(C)C1 [Example 51]
5.9		CC(=O)c1[nH]c2ccccc2c1NC(=O)CN1CCC(Oc2ccccc2)CC1 [Example 52]

hMC4R PAM LANCE pEC50 Mean	hMC4R PAM LANCE Asym Max	Structure (SMILES)
5.7		CC1(C)CCCN(CC(=O)Nc2c(C(=O)C3CC3)[nH]c3ccc(N4CCOCC4)cc23)C1 [Example 53]
6		O=C(CN1CCC(C2CC2)CC1)Nc1c(C(=O)C2CC2)[nH]c2ccccc12 [Example 54]
5.8		COC(=O)c1[nH]c2ccccc2c1NC(=O)CN1CCC(Nc2ccccc2)CC1 [Example 55]
5.9		O=C(CN1CCC(c2ccccc2)CC1)Nc1c(C(=O)C2CCC2)[nH]c2ccccc12 [Example 56]
5.6		COC(=O)c1[nH]c2ccccc2c1NC(=O)CN1CCN(Cc2ccccc2)C(C)(C)C1 [Example 57]
7.1		CS(=O)(=O)c1ccc2[nH]c(C(=O)C3CC3)c(NC(=O)CN3CCC(C4CCCCC4)CC3)c2c1 [Example 58]
6.7		O=C(CN1CCC(C2CCCC2)CC1)Nc1c(C(=O)C2CC2)[nH]c2ccncc12 [Example 59]
6.7		COC(=O)c1[nH]c2ccc(N3CCOCC3C)cc2c1NC(=O)CN1CCC(C2CCCCC2)CC1 (stereo not shown) [Example 60]
6.6		COC(=O)c1[nH]c2ccc(N3CCOCC3)cc2c1NC(=O)CN1CCC(C2CCCCC2)CC1 [Example 61]
6.6		O=C(CN1CCC(C2CCCCC2)CC1)Nc1c(C(=O)C2CC2)[nH]c2ccncc12 [Example 62]
6.7		O=C(CN1CCC(C2CCCC2)CC1)Nc1c(C(=O)C2CC2)[nH]c2ccc(Cl)cc12 [Example 63]
6.6		CC(=O)c1[nH]c2ccncc2c1NC(=O)CN1CCC(C2CCCC2)CC1 [Example 64]
6.5		O=C(CN1CCC2(CCCCC2)CC1)Nc1c(C(=O)C2CC2)[nH]c2ccccc12 [Example 65]
6.6		O=C(CN1CCC(C2CCCCC2)CC1)Nc1c(C(=O)C2CC2)[nH]c2ccc(N3CCOCC3)cc12 [Example 66]
6.5		O=C(CN1CCC(c2ccccc2)CC1)Nc1c(C(=O)C2CC2)[nH]c2ccncc12 [Example 67]
6.4		O=C(CN1CCC2(CCCC2)CC1)Nc1c(C(=O)C2CC2)[nH]c2ccncc12 [Example 68]
6.3		O=C(CN1CCC(c2ccccc2)CC1)Nc1c(C(=O)C2CC2)[nH]c2ccc(N3CCOCC3)cc12 [Example 69]
6.4		CC(=O)c1[nH]c2ccccc2c1NC(=O)C(C)N1CCC(C2CCCC2)CC1 (stereo not shown) [Example 70]
6.4		CC(C(=O)Nc1c(C(=O)C2CC2)[nH]c2ccccc12)N1CCC(C2CCCC2)CC1 (stereo not shown) [Example 71]
6.3		CC(=O)c1[nH]c2ccncc2c1NC(=O)CN1CCC(C(C)(C)C)CC1 [Example 72]
6.2		O=C(CN1CCN(c2ccccc2)CC1)Nc1c(C(=O)C2CC2)[nH]c2ccncc12 [Example 73]
6.2		CC1(C)CCCN(CC(=O)Nc2c(C(=O)C3CC3)[nH]c3ccncc23)C1 [Example 74]
5.9		COC(=O)c1[nH]c2ccc(C)cc2c1NC(=O)CN1CCC(Cc2ccccc2)CC1 [Example 75]

Structure (SMILES)	hMC4R PAM LANCE pEC50 Mean	hMC4R PAM LANCE Asym Max
COC(=O)c1[nH]c2ccccc2c1NC(=O)CN1CCC(N(C)c2ccccc2)CC1 [Example 45]	6.3	
